Assay results reported in patent publication US20130217722A1, “NOVEL COMPOUND USEFUL FOR THE TREATMENT OF DEGENERATIVE AND INFLAMMATORY DISEASES” (priority 2012, published 2013).
Several values for one entry are separate records, joined by “and”; a condition that tells them apart may be missing. Equal entries are not always repeated.

Legend:
[1] = target: T1, JAK1 (Homo sapiens, UniProt P23458); assay: JAK1 Ulight-JAK1 peptide assay; type: biochemical
T1 construct: Recombinant human JAK1 (catalytic domain, amino acids 866-1154; catalog number PV4774) was purchased from Invitrogen; purchased Invitrogen PV4774
T1 sequence (P23458 866-1154): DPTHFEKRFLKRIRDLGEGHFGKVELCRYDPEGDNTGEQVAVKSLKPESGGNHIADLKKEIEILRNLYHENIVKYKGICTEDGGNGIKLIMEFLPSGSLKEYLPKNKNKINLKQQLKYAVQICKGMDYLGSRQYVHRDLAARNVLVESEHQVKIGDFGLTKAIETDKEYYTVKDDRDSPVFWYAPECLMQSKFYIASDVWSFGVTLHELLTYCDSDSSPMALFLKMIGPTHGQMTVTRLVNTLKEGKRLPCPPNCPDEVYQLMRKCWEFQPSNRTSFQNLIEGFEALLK
Description: Recombinant human JAK1 (catalytic domain, amino acids 866-1154; catalog number PV4774) was purchased from Invitrogen. 1 ng of JAK1 was incubated with 20 nM Ulight-JAK1(tyr1023) peptide (Perkin Elmer catalog number TRF0121) in kinase reaction buffer (25 mM MOPS pH6.8, 0.01% Brij-35, 5 mM MgCl2, 2 mM DTT, 7 μM ATP) with or without 4 μL containing test compound or vehicle (DMSO, 1% final concentration), in a total volume of 20 μL, in a white 384 Opti plate (Perkin Elmer, catalog number 6007290). […] Readout is performed using the Envision with excitation at 320 nm and measuring emission at 615 nm (Perkin Elmer). Kinase activity was calculated by subtracting relative fluorescence units (RFU) obtained in the presence of a positive control inhibitor (10 μM staurosporine) from RFU obtained in the presence of vehicle. The ability of a test compound to inhibit this activity was determined as:
Percentage inhibition=((RFU determined for sample with test compound present−RFU determined for sample with positive control inhibitor) divided by (RFU determined in the presence of vehicle−RFU determined for sample with positive control inhibitor))*100.
Dose dilution series were prepared for the compounds enabling the testing of dose-response effects in the JAK1 assay and the calculation of the IC50 for the compound. […] The data are expressed as the average IC50 from the assays ±standard error of the mean.

[2] = target: T1, JAK1; assay: JAK1 Ki determination assay; type: biochemical; conditions: Lineweaver-Burk, varying ATP; read-out: Ki against JAK1
Description: For the determination of Ki, different amounts of compound were mixed with the enzyme and the enzymatic reaction was followed as a function of ATP concentration. The Ki was determined by means of double reciprocal plotting of Km vs compound concentration (Lineweaver-Burk plot). 1 ng of JAK1 (Invitrogen, PV4774) is used in the assay. The substrate was 50 nM Ulight-JAK-1 (Tyr1023) Peptide (Perkin Elmer, TRF0121) The reaction is performed in 25 mM MOPS pH 6.8, 0.01%, 2 mM DTT, 5 mM MgCl2 Brij-35 with varying concentrations of ATP and compound. Phosphorylated substrate was measured using an Eu-labeled anti-phosphotyrosine antibody PT66 (Perkin Elmer, AD0068) as described in 1.1.2. Readout was performed on the envision (Perkin Elmer) with excitation at 320 nm and emission followed at 615 nm and 665 nm.

[3] = target: T2, JAK2 (Homo sapiens, UniProt O60674); assay: JAK2 Ulight-JAK1 peptide assay; type: biochemical
T2 construct: Recombinant human JAK2 catalytic domain (amino acids 808-1132; catalog number PV4210) was purchased from Invitrogen; purchased Invitrogen PV4210
T2 sequence (O60674 808-1132): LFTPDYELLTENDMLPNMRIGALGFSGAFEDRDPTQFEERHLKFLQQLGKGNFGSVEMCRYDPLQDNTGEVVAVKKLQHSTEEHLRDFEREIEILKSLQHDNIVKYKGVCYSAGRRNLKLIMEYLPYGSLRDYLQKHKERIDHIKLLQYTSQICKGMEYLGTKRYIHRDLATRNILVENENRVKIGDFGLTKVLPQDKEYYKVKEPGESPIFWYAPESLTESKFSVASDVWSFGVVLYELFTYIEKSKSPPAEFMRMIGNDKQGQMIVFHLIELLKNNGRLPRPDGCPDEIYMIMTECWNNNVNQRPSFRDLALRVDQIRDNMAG
Description: Recombinant human JAK2 (catalytic domain, amino acids […]; catalog number PV4210) was purchased from Invitrogen. 0.0125 mU of JAK2 was incubated with 25 nM Ulight-JAK1(tyr1023) peptide (Perkin Elmer catalog number TRF0121) in kinase reaction buffer (25 mM HEPES pH7.0, 0.01% Triton X-100, 7.5 mM MgCl2, 2 mM DTT, 7.5 μM ATP) with or without 4 μL containing test compound or vehicle (DMSO, 1% final concentration), in a total volume of 20 μL, in a white 384 Opti plate (Perkin Elmer, catalog number 6007290). After 60 min at rt, reactions were stopped by adding 20 μL/well of detection mixture (1× detection buffer (Perkin Elmer, catalog number CR97-100C), 0.5 nM Europium-anti-phosphotyrosine (PT66) (Perkin Elmer, catalog number AD0068), 10 mM EDTA). Readout is performed using the Envision with excitation at 320 nm and measuring emission at 615 nm (Perkin Elmer). Kinase activity was calculated by subtracting relative fluorescence units (RFU) obtained in the presence of a positive control inhibitor (10 μM staurosporine) from RFU obtained in the presence of vehicle. The ability of a test compound to inhibit this activity was determined as:
Percentage inhibition=((RFU determined for sample with test compound present−RFU determined for sample with positive control inhibitor) divided by (RFU determined in the presence of vehicle−RFU determined for sample with positive control inhibitor))*100. […]

[4] = target: T2, JAK2; assay: JAK2 Ki determination assay (kinase tracer binding); conditions: kinase tracer 236 binding; read-out: Ki against JAK2
Description: (§1) JAK2 (Invitrogen, PV4210) was used at a final concentration of 5 nM. The binding experiment was performed in 50 mM Hepes pH 7.5, 0.01% Brij-35, 10 mM MgCl2, 1 mM EGTA using 25 nM kinase tracer 236 (Invitrogen, PV5592) and 2 nM Eu-anti-GST (Invitrogen, PV5594) with varying compound concentrations. Detection of tracer was performed according to the manufacturer's procedure.

[5] = target: T3, TYK2 (Homo sapiens, UniProt P29597); assay: TYK2 Ki determination assay (kinase tracer binding); conditions: kinase tracer 236 binding; read-out: Ki against TYK2
T3 construct: purchased Carna Biosciences 09CBS-0983D
T3 sequence (P29597 whole entry): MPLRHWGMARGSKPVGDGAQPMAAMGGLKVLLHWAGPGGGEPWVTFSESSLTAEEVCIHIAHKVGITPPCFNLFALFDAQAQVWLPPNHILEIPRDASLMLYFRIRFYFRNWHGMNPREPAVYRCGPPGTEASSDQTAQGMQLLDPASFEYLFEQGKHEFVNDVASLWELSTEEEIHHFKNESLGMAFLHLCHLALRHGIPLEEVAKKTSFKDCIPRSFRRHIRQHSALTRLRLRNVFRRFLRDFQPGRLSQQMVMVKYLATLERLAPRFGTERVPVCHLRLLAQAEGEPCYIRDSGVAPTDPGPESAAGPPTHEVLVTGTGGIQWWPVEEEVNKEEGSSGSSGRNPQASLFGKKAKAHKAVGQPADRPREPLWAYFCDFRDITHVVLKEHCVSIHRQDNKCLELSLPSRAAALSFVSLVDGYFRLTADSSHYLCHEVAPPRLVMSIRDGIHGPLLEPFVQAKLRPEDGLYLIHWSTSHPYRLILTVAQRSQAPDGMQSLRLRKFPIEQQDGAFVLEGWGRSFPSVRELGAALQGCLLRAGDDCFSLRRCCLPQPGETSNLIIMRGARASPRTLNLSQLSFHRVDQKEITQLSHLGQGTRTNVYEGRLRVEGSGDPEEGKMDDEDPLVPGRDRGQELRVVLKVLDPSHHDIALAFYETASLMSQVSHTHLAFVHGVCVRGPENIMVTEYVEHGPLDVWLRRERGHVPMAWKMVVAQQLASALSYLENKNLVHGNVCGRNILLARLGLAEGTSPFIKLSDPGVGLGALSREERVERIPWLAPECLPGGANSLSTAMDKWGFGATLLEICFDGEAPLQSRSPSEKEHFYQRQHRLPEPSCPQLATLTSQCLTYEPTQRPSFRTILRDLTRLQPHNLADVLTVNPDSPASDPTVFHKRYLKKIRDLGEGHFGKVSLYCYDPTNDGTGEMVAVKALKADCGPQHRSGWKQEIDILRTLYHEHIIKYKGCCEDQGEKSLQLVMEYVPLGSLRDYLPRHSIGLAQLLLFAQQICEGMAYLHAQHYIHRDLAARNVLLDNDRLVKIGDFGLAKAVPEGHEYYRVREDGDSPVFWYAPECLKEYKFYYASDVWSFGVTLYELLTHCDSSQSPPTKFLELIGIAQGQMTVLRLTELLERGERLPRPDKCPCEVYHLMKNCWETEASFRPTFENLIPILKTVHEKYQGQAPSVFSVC
Description: as §1, with “TYK2 (Carna Biosciences, 09CBS-0983D)” for “JAK2 (Invitrogen, PV4210)”, “50” for “25”, “manufacturers'” for “manufacturer's”

[6] = test system: CTLL2 cells; assay: CTLL2 viability assay (IL2-dependent); type: cell-based; conditions: ATP content
Description: The protocol describes the methods to analyse the activity of compounds on the ability to sustain the IL2-dependent viability of CTLL2
Negative control is a DMSO dilution, positive control at 10 μM. Final DMSO concentration is 0.1%.

selectivity for JAK1 vs the other JAK family members (JAK2, JAK3, and TYK2) [1]: at least 9 fold
Ki [2]: 3.69 nM
JAK1 selectivity vs JAK2 [3]: 28 fold
IC50 ([3]; Ulight-JAK1(tyr1023) peptide, 7.5 μM ATP, individual determinations, read-out: IC50 against JAK2): 61.5 nM and 108 nM and 101 nM and 42.9 nM and 26.4 nM and 155 nM and 35.7 nM and 30.5 nM
Ki [4]: 25.1 nM
Ki [5]: 70.7 nM and 108 nM
Structure (SMILES): CCc1cc(C2=CCN(C(=O)CC#N)CC2)ccc1N(C)c1cc2c(cn1)ncn2C [Compound 1]
IC50 ([1]; Ulight-JAK1(tyr1023) peptide, 7 μM ATP, individual determinations, read-out: IC50 against JAK1): 1.37 nM and 1.47 nM and 1.6 nM and 3.08 nM and 1.13 nM and 1.45 nM (2×) and 1.92 nM and 2.34 nM and 2.42 nM and 1.42 nM and 4.09 nM and 4.14 nM and 3.63 nM and 3.46 nM and 2.31 nM and 0.815 nM and 6.84 nM and 6.14 nM and 0.756 nM
IC50 ([6]; 24 h, listed as compound of the invention): 2440 nM
IC50 ([6]; Mus musculus, CTLL-2, 24 h): 1810 nM
